Source: patent publication US6121319A (priority 1998, dated 2000)

Legend:
VCAM-1 [1] = assay: VCAM-1 expression in human aortic endothelial cells (TNF-induced, ELISA); format: cell-based; conditions: for VCAM-1 expression as a percentage of VCAM-1 expression induced by TNF alone: HAEC, 2.5, 5, 10 and 100 μM, 16 h, 37 °C, FIG. 1
Method: (§1) The cells were incubated for sixteen hours in cell culture media at 37 degrees Celsius in a tissue culture incubator. After sixteen hours, the cells were washed, and incubated with antibodies to VCAM-1. The amount of antibody binding to the cells was determined by a colorometric ELISA assay using a horseradish peroxidase conjugated antibody to the VCAM-1 antibody.

ICAM-1 = ICAM-1 expression in human aortic endothelial cells (TNF-induced, ELISA); format: cell-based; conditions: HAEC; 2.5, 5, 10 and 100 μM; 16 h; FIG. 2
Method: as §1, with “ICAM-1.” for “VCAM-1.”, “ICAM-1” for “VCAM-1”

lipid-fed rabbits = assay: Cholesterol and lipoprotein cholesterol in plasma of lipid-fed rabbits, three weeks; format: in vivo, rabbit; conditions: 0.5% wt/wt in high-fat chow, p<0.05, FIG. 5
Source text: Control animals were fed the same chow without drug added. Lipoprotein fractions were separated from whole plasma by […] and analyzed for cholesterol content.

VCAM-1 [2] = assay: VCAM-1 expression in aorta sections of hypercholesterolemic rabbits (immunostaining); format: in vivo, rabbit; conditions: six weeks; for reduction in VCAM-1 expression in aorta sections: immunostaining, approx. 150 mg/kg/day (probucol: similar experiment, same dose)
Source text: (§2) After six weeks, lipoprotein fractions were separated from whole plasma by […], and analyzed for cholesterol and triglyceride content.
(§3) The rabbits described in Example 8 were sacrificed and aortas obtained. The aortas were stained with sudan-4 and the extent of staining analyzed. FIG. 9 is a graph of the percent aortic surface area covered by lesions in MSE treated and untreated lipid-fed rabbits.
(§4) Sections of the aortas were immunostained for VCAM-1 expression or macrophage accumulation using antibodies for VCAM-1 or Ram-11 antigen.

[3] = tested on: macrophage accumulation (Ram-11 antigen); assay: Macrophage accumulation in aorta sections of hypercholesterolemic rabbits (Ram-11 immunostaining); format: in vivo, rabbit; conditions: six weeks; for reduction in macrophage accumulation in aorta sections: immunostaining (Ram-11), approx. 150 mg/kg/day (probucol: similar experiment, same dose)
Source text: as §2, §3, §4

apoE-knock out mice = assay: Lipoproteins in apoE-knock out mice, two weeks oral; format: in vivo, mouse; conditions: for effect on total cholesterol and LDL / effect on HDL: mice
rabbits = assay: Effect on lipoproteins in rabbits (summary statement); format: in vivo, rabbit; conditions: for effect on HDL: rabbits (species not restated for probucol)
Source text: Statins reduce LDL and may or may not effect HDL.

VCAM-1 [4] = assay: VCAM-1 expression (general statement)
[5] = tested on: LDL receptor-deficient rabbits; conditions: Carew et al.; cited from earlier work
[6] = cited from earlier work
NF-kB [7] = assay: NF-kB activation in TNF-treated human aortic endothelial cells (gel shift); format: cell-based; conditions: HAEC, 25 micromolar, 1, 2 or 4 h
Method: Human aortic endothelial cells were treated with TNF alone or in combination with 25 micromolar MSE or PDTC for a period of either one hour, two hours or four hours. The cells were washed and the nuclear extracts were prepared to perform gel shift analysis using a VCAM-1 promoter probe.

NF-kB [8] = conditions: diverse signals; cited from earlier work
VCAM-1 [9] = conditions: PCT/US95/05880; cited from earlier work
VCAM-1 [10] = conditions: U.S. Pat. No. 5,380,747; cited from earlier work
MCP-1 [11] = assay: MCP-1 expression in human aortic endothelial cells (TNF, ELISA); format: cell-based
Source text: The cell culture media was harvested and used to quantitate the amount of MCP-1 using a color-based ELISA assay. […] MCP-1 is a chemoattractant protein that recruits monocytes to an atherosclerotic lesion.

VCAM-1 [12] = assay: VCAM-1 gene expression in lungs of LPS-challenged mice (Northern blot); format: in vivo, mouse; conditions: subcutaneous time release pellets, 150 mg/kg/day
Method: (§5) MSE administered via subcutaneous implanted pellets (150 mg/kg/day time release pellets) blocks LPS-induced gene expression of VCAM-1 and MCP-1 in lungs in a mice model.
(§6) FIG. 4 is a Northern blot analysis of VCAM-1 and MCP-1 gene expression from RNA isolated from the lungs of LPS-challenged ApoE knockout mice. […] After one week they were challenged intraperitoneally with 1 mg/kg of LPS. After two hours the animals were sacrificed and lungs frozen for RNA isolation. The RNA was size fractionated by denaturing 1.0% agarose gel electrophoresis, transferred to a nylon membrane and hybridized with a mouse JE-specific ^32 P-labelled cDNA probe. The membrane was subsequently stripped and hybridized with a mouse VCAM-1 specific cDNA and then a chicken β-actin specific cDNA probe.

MCP-1 [13] = assay: MCP-1 gene expression in lungs of LPS-challenged mice (Northern blot); format: in vivo, mouse; conditions: subcutaneous time release pellets, 150 mg/kg/day
Method: as §5, §6

[14] = Drug level in plasma of rabbits fed a high cholesterol diet for three weeks (HPLC); format: in vivo, rabbit; conditions: 0.5% wt/wt in high-fat chow, FIG. 6
Source text: The drugs were extracted from plasma with ether and analyzed by high pressure liquid chromatography.

[15] = tested on: New Zealand white rabbits; assay: Cholesterol and lipoproteins in cholesterol-fed New Zealand White rabbits, six weeks; format: in vivo, rabbit
Method: (§7) Oral administration of MSE (150 mg/kg/day) for six weeks lowers total plasma, ApO-B containing and HDL cholesterol levels in a New Zealand White rabbit model.
as §2

aortic lesions = assay: Aortic lesions in hypercholesterolemic rabbits (sudan-4 staining); format: in vivo, rabbit; conditions: six weeks
Method: as §7, §2, §3

[16] = tested on: hypercholesterolemic monkeys; assay: Serum LDL and cholesterol in hypercholesterolemic cynomolgus monkeys; format: in vivo; conditions: for effect on HDL: monkeys
Method: Cynomolgus monkeys were made hypercholesterolemic prior to AGE-3 dosing by feeding a high fat cholesterol diet. The monkeys were then dosed orally with AGE-3 (100 mg/kg/day) for two weeks. The percent serum LDL cholesterol decreased in a range from 4 to 60 percent in the monkeys over this time period. Administration of the drug was then terminated, and serum cholesterol checked on day 29.

[17] = Plasma level of MSE over days of treatment (FIG. 10); format: in vivo; conditions: FIG. 10, in micromolar
bacteria = assay: Bacterial Ames test
Source text: MSE is not a mutagen in the bacterial Ames test.

rats = assay: Two-week oral administration to rats (toxicity, clinical chemistry); format: in vivo, rat; conditions: 1000 mg/kg/day
C57 black mice = assay: Lipoproteins in cholesterol-fed C57 black mice, two weeks oral; format: in vivo, mouse
[18] = 0.5 wt/wt (approx. 150 mg/kg/day) in diet, FIG. 8
[19] = oral, 150 mg/kg/day, New Zealand White rabbit
[20] = listed as monosuccinic acid ester of probucol

CC(C)(Sc1cc(C(C)(C)C)c(O)c(C(C)(C)C)c1)Sc1cc(C(C)(C)C)c(O)c(C(C)(C)C)c1 [probucol, 4,4'-(isopropylidenedithio) bis(2,6-di-tert-butylphenol), reference compound]
VCAM-1 expression as a percentage of VCAM-1 expression induced by TNF alone (VCAM-1 [1]): does not have an appreciable effect on VCAM
ICAM-1 expression as a percentage of ICAM-1 expression induced by TNF alone (ICAM-1): no effect on ICAM expression
reduction in lipoprotein fractions (cholesterol) (lipid-fed rabbits): only HDL cholesterol
reduction in VCAM-1 expression in aorta sections (VCAM-1 [2]): less than 25%
reduction in macrophage accumulation in aorta sections [3]: less than 25%
effect on total cholesterol and LDL (apoE-knock out mice): a minimal if any, effect
effect on HDL (rabbits): reduces HDL significantly
effect on LDL (rabbits; species not restated for probucol): reduces LDL only to a small extent
effect on VCAM-1 expression (VCAM-1 [4]): does not significantly affect VCAM-1 expression
progression of atherosclerosis [5]: slow the progression of atherosclerosis
solubility in water [6]: almost insoluble in water

S=C(S)N1CCCC1 [PDTC, pyrrolidine dithiocarbamate]
effect on NF-kB activation (NF-kB [7]): does inhibit the activation of NF-kB
activation of NF-kB in vascular endothelial cells (NF-kB [8]): specifically inhibited
induction of VCAM-1 by polyunsaturated fatty acids and their hydroperoxides (VCAM-1 [9]): supressed
expression of VCAM-1 in vascular endothelial cells (VCAM-1 [10]): can be inhibited

CC(C)(Sc1cc(C(C)(C)C)c(O)c(C(C)(C)C)c1)Sc1cc(C(C)(C)C)c(OC(=O)CCC(=O)O)c(C(C)(C)C)c1 [MSE, monosuccinic acid ester of probucol]
VCAM-1 expression as a percentage of VCAM-1 expression induced by TNF alone (VCAM-1 [1]): inhibits the expression of VCAM-1
TNF-induced VCAM-1 gene expression (VCAM-1 [1]; human aortic endothelial cells): selectively inhibits
ICAM-1 expression as a percentage of ICAM-1 expression induced by TNF alone (ICAM-1): only a slight effect on ICAM expression which was not very concentration dependent
MCP-1 expression (MCP-1 [11]; HAEC, MSE 10 μM, probucol 50 μM, TNF, 4 h, FIG. 3): inhibited the expression of MCP-1 to a greater extent than probucol itself
TNF-induced MCP-1 gene expression (MCP-1 [11]; human aortic endothelial cells): selectively inhibits
LPS-induced gene expression of VCAM-1 in lungs (VCAM-1 [12]): blocks
LPS-induced gene expression of MCP-1 in lungs (MCP-1 [13]): blocks
reduction in lipoprotein fractions (cholesterol) (lipid-fed rabbits): statistically significant reduction in all lipoprotein fractions
drug level in plasma, MSE vs probucol [14]: similar
effect on NF-kB activation (NF-kB [7]): does not affect NF-kB activation
cholesterol in IDL [15, 18]: lowered more by treatment with AGE-3 than with probucol
cholesterol in VLDL [15, 18]: lowered more by treatment with AGE-3 than with probucol
total cholesterol [15, 18]: lowered more by treatment with AGE-3 than with probucol
ApO-B containing cholesterol levels [15, 19]: lowers
HDL cholesterol levels [15, 19]: lowers
total plasma cholesterol [15, 19]: lowers
atherosclerosis lesion formation (aortic lesions; oral, 150 mg/kg/day): marked inhibition
aortic sudan-4 staining (aortic lesions; approx. 150 mg/kg/day, FIG. 9): much less staining
reduction in VCAM-1 expression in aorta sections (VCAM-1 [2]): more than 75%
VCAM-1 expression in aorta (VCAM-1 [2]; oral, 150 mg/kg/day): marked inhibition
reduction in macrophage accumulation in aorta sections [3]: more than 75%
macrophage accumulation ([3]; oral, 150 mg/kg/day): marked inhibition
serum cholesterol after termination of dosing ([16]; day 29, after 100 mg/kg/day oral for two weeks): returned to the pretreatment level
lowering of LDL, reversibility ([16]; during and after administration, FIG. 12): reversible lowering of LDL
effect on HDL [16]: without effecting HDL
effect on total cholesterol and LDL, monkeys vs mice ([16]; monkeys compared with mice): significantly more effective at reducing both cholesterol and LDL in rabbits and monkeys than in mice
effect on HDL [16, 20]: does not affect HDL
LDL cholesterol ([16]; oral, two weeks): lowers
total plasma cholesterol ([16]; oral, two weeks): lowers
plasma level of MSE as a function of days [17]: remained fairly constant
effect on HDL (apoE-knock out mice): without affecting HDL
effect on total cholesterol and LDL (apoE-knock out mice): a minimal if any, effect
effect on HDL (apoE-knock out mice; [20]): does not affect HDL
apoB-containing lipoproteins (apoE-knock out mice; oral, two weeks, apoE-knock out mice): selectively lowers
mutagenicity (bacteria): not a mutagen
mortality (rats; oral, two weeks): did not result in any mortality
changes in liver morphology or histopathology (rats; rat, in vivo, po): not accompanied with changes in liver morphology or histopathology
hematocrit values (rats; rat, in vivo, po): no effect
serum LDH elevation (rats; rat, in vivo, po): not statistically different from the untreated group
serum SGOT elevation (rats; rat, in vivo, po): not statistically different from the untreated group
serum SGPT elevation (rats; rat, in vivo, po): not statistically different from the untreated group
serum alkaline phosphatase elevation (rats; rat, in vivo, po): not statistically different from the untreated group
serum electrolyte values (rats; rat, in vivo, po): no effect
effect on HDL (rabbits): reduces HDL only to a small extent
effect on total cholesterol and LDL, rabbits vs mice (rabbits; rabbits compared with mice): significantly more effective at reducing both cholesterol and LDL in rabbits and monkeys than in mice
apoB-containing lipoproteins (C57 black mice): selectively lowers
effect on HDL (C57 black mice): without affecting HDL
effect on VCAM-1 expression (VCAM-1 [4]): block the induced expression of the endothelial cell surface adhesion molecule VCAM-1
VCAM-1 expression, all species tested (VCAM-1 [4]; all species tested): inhibits the expression of VCAM-1 in all species tested
